Laboratory results: patent US11396517B1, “Exo-aza spiro inhibitors of menin-MLL interaction” (Janssen Pharmaceutica NV, priority 2017, dated 2022)
Read-outs that look alike come from different tables or passages of the source.

Key:
menin = molecular target: T1, menin (Homo sapiens, UniProt O00255, T541A); assay: Menin/MLL homogenous time-resolved fluorescence (HTRF) assay; format: binding; conditions: location 2; read-out: (2) location 2 Menin HTRF assay (IC50 (nM))
T1 construct: Menin (a.a. 1-610-6×his tag)
T1 sequence (O00255 with tags, fused parts or gaps T541A): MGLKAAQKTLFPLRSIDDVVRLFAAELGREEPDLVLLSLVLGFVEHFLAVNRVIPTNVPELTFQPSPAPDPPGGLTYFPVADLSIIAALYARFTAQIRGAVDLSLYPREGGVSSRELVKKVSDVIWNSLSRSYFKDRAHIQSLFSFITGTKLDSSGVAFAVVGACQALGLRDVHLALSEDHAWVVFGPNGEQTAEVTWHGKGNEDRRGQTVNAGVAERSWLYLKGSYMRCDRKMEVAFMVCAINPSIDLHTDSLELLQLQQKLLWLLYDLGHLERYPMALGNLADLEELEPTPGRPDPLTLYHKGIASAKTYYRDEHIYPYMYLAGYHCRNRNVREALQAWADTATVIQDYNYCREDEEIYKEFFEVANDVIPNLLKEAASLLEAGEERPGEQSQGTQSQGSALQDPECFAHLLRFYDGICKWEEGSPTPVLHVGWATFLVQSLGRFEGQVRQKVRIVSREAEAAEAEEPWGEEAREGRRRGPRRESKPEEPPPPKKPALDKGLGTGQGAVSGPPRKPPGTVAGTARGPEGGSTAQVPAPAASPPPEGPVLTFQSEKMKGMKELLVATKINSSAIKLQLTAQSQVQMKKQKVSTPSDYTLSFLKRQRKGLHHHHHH
Summary of the method: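 Displacement of 75 nM FITC-MBM1 from terbium-cryptate-labeled His-tagged menin 1-610 ([…]) was read as the 520/490 nm HTRF ratio. Compound (11-point, 3-fold series) got 5 min with menin before peptide, then 15 min at ambient; 0.5% DMSO, Tris pH 7.5.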

MV-4-11 [1] = assay: Proliferation assay B (spheroid assay) MV-4-11; format: cell-based, human; conditions: Homo sapiens, MV4-11, 192 h, MV-4-11 cells, confluence at day 8, absolute IC50; read-out: (3b) Spheroid assay MV-4--11 (IC50(μM)) Assay B
Description: 3b) Proliferation Assay B
(§1) The anti-proliferative effect of menin/MLL protein/protein interaction inhibitor test compounds was assessed in human leukemia cell lines. The cell lines MV-4-11 and MOLM14 harbor MILL translocations and express the MILL fusion proteins MLL-AF4 and MLL-AF9, respectively, as well as the wildtype protein from the second allele. […] K562 was used as a control cell line containing two MLL wildtype alleles in order to exclude compounds that display general cytotoxic effects.
(§2) MV-4-11 and MOLM14 were cultured in RPMI-1640 (Sigma Aldrich) supplemented with 10% fetal bovine serum (HyClone), 2 mM L-glutamine (Sigma Aldrich) and 50 μg/ml gentamycin (Gibco). K562 were propagated in RPMI-1640 (Sigma Aldrich) supplemented with 20% fetal bovine serum (HyClone), 2 mM L-glutamine (Sigma Aldrich) and 50 μg/ml gentamycin (Gibco).
(§3) In order to assess the anti-proliferative effects, 1,500 MV-4-11, 300 MOLM14 cells or 750 K562 cells were seeded in 200 μl media per well in 96-well round bottom, ultra-low attachment plates (Costar, catalogue number 7007). Cell seeding numbers were chosen based on growth curves to ensure linear growth throughout the experiment. Test compounds were added at different concentrations and the DMSO content was normalized to 0.3%. Cells were incubated for 8 d at 37° C. and 5% CO2. Spheroid like growth was measured in real-time by live-cell imaging (IncuCyteZOOM, Essenbio, 4× objective) acquiring images at day 8. Confluence (%) as a measure of spheroid size was determined using an integrated analysis tool.
In order to determine the effect of the test compounds over time, the confluence in each well as a measure of spheroid size, was calculated. Confluence […] at the beginning of the experiment (t=0) was used as baseline for the calculation.
Absolute IC50 values were calculated as percent change in confluence as follows:
LC=Low Control: cells treated with 1 μM of the cytotoxic agent staurosporin
HC=High Control: Mean confluence (%) (DMSO treated cells) % Effect=100−(100*(Sample−LC)/(HC−LC))
To determine the IC50 a curve is fitted to the plot of % Effect vs Log 10 compound concentration using a sigmoidal fit with a variable slope and fixing the maximum to 100% and the minimum to 0%.

MOLM14 = assay: Proliferation assay B (spheroid assay) MOLM14; format: cell-based, human; conditions: MOLM14 cells, confluence at day 8, absolute IC50, read-out: (3b) Spheroid assay MOLM14 (IC50(μM)) Assay B
Summary of the method: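 IC50 derived from % effect on day-8 imaged confluence, scaled between DMSO-treated cells (high) and 1 μM staurosporine (low), using a variable-slope fit constrained 0-100%. Cells seeded as spheroids in ultra-low-attachment plates and exposed to compound for 8 days, 0.3% DMSO.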

MV-4-11 [2] = assay: Proliferation assay A (spheroid assay) MV-4-11; format: cell-based, human; conditions: MV-4-11 cells, 8 d, AUC of confluence against time, absolute IC50, read-out: (3a) Spheroid assay MV-4-11 (IC50(μM)) Assay A
Description: 3a) Proliferation Assay A
as §1, §2
as §3, with “MOLM14” for “MOLM14 cells”, “monitored” for “measured”, “one image every four hours for 8 d.” for “images at day 8.”
In order to determine the cumulative effect of the test compounds over time, the area under the curve (AUC) in a plot of confluence against time was calculated. Confluence at the beginning of the experiment (t=0) was used as baseline for the AUC calculation.
Absolute IC50 values were calculated according to the following procedure: % Control=(AUC sample/AUC control)*100
AUC control mean AUC of control values (cells without compound/DMSO as vehicle control)
A non-linear curve fit was applied using the least squares (ordinary) fit method to the plot of % control versus compound concentration. Based on this, the absolute IC50 value (half maximal inhibitory concentration of the test compound causing an anti-proliferative effect of 50% relative to the vehicle control) was calculated.

Row | IC50 (menin) | IC50 (MV-4-11 [1]) | IC50 (MOLM14; Homo sapiens, MOLM-14, 192 h) | IC50 (MV-4-11 [2]; Homo sapiens, MV4-11, 192 h) | IC50 (MV-4-11 [2]) | IC50 (MOLM14) | SMILES
1 | 90 nM | 2.84 µM | > 3.75 µM | – | – | – | N#Cc1ccccc1NC1CC2(CCN(c3ncnc4sc(CC(F)(F)F)cc34)C2)C1 (mixture of isomers) [Compound 162]
2 | 77.6 nM | > 3.75 µM | > 3.75 µM | – | – | – | N#Cc1cccc(NC2CC3(CCN(c4ncnc5sc(CC(F)(F)F)cc45)C3)C2)c1 (mixture of isomers) [Compound 163]
3 | 8.6 nM | 1.14 µM | – | – | – | – | CN1CCN(c2cc(NC3CC4(CCN(c5ncnc6sc(CC(F)(F)F)cc56)C4)C3)ccc2C#N)CC1 (mixture of isomers) [Compound 240]
4 | 22.5 nM | > 3.75 µM | > 3.75 µM | – | – | – | CNc1nc(N2CCC3(CC(Nc4ccc(C#N)cn4)C3)C2)c2cc(CC(F)(F)F)sc2n1 (mixture of isomers) [Compound 271]
5 | 4.2 nM | 1.22 µM | 3.41 µM | – | – | – | FC(F)(F)Cc1cc2c(N3CCC4(CC(Nc5ccc6cnoc6c5)C4)C3)ncnc2s1 (mixture of isomers) [Compound 315]
6 | 50.3 nM | – | 3.03 µM | 0.84 µM | – | – | COc1cc(NC2CC3(CCN(c4ncnc5sc(CC(F)(F)F)cc45)C3)C2)ccn1 (mixture of isomers) [Compound 341]
7 | 26.4 nM | > 3.75 µM | > 3.75 µM | – | – | – | CNc1nc(N2CCC3(CC(Nc4ccc5[nH]c(=O)oc5c4)C3)C2)c2cc(CC(F)(F)F)sc2n1 (mixture of isomers) [Compound 399]
8 | 2.4 nM | 1.09 µM | – | – | – | – | CS(=O)(=O)NCCCNC(=O)c1ccc(NC2CC3(CCN(c4ncnc5sc(CC(F)(F)F)cc45)C3)C2)nc1 (single isomer, unassigned) [Compound 275]
9 | 8.1 nM | – | 3.07 µM | 0.6 µM | – | – | CNS(=O)(=O)c1ccc(NC2CC3(CCN(c4ncnc5sc(CC(F)(F)F)cc45)C3)C2)cc1 (single isomer, unassigned) [Compound 318]
10 | 32.3 nM | – | – | 1.76 µM | – | – | FC(F)(F)Cc1cc2c(N3CC4(CCC(Nc5ccc(-c6cc[nH]n6)cc5)C4)C3)ncnc2s1 (centres unmarked) [Compound 301]

Further lines, the molecule ahead of its results:

Row | SMILES | IC50 (menin) | IC50 (MV-4-11 [1]) | IC50 (MOLM14; Homo sapiens, MOLM-14, 192 h) | IC50 (MV-4-11 [2]; Homo sapiens, MV4-11, 192 h) | IC50 (MV-4-11 [2]) | IC50 (MOLM14)
11 | Fc1ccc(NC2CC3(CCN(c4ncnc5sc(CC(F)(F)F)cc45)C3)C2)cc1 (mixture of isomers) [Compound 158] | 72.2 nM | 2.41 µM | 1.98 µM | – | – | –
12 | N#Cc1ccc(NC2CC3(CCN(c4ncnc5sc(CC(F)(F)F)cc45)C3)C2)cc1 (mixture of isomers) [Compound 164] | 12.2 nM | 1.09 µM | 1.97 µM | – | – | –
13 | CS(=O)(=O)N1CCC(CNC(=O)c2ccc(NC3CC4(CCN(c5ncnc6sc(CC(F)(F)F)cc56)C4)C3)cc2)CC1 (mixture of isomers) [Compound 177] | 16.2 nM | 1.02 µM | 1.22 µM | – | – | –
14 | Cn1nnc2ccc(NC3CC4(CCN(c5ncnc6sc(CC(F)(F)F)cc56)C4)C3)cc21 (mixture of isomers) [Compound 216] | 38 nM | > 3.75 µM | > 3.75 µM | – | – | –
15 | CN1CCN(Cc2cc(NC3CC4(CCN(c5ncnc6sc(CC(F)(F)F)cc56)C4)C3)ccc2C#N)CC1 (mixture of isomers) [Compound 225] | 22.7 nM | 1.95 µM | – | – | – | –
16 | CNC(=O)c1ccc(NC2CC3(CCN(c4ncnc5sc(CC(F)(F)F)cc45)C3)C2)cc1NCCN(C)C (mixture of isomers) [Compound 239] | 33.6 nM | > 3.75 µM | – | – | – | –
17 | CNC(=O)c1ccc(NC2CC3(CCN(c4ncnc5sc(CC(F)(F)F)cc45)C3)C2)cc1CCCN1CCN(S(C)(=O)=O)CC1 (mixture of isomers) [Compound 251] | 171 nM | > 3.75 µM | > 3.75 µM | – | – | –
18 | O=c1[nH]c2cc(NC3CC4(CCN(c5ncnc6sc(CC(F)(F)F)cc56)C4)C3)ccc2o1 (mixture of isomers) [Compound 308] | 5.6 nM | 2.64 µM | > 3.75 µM | – | – | –
19 | O=c1[nH]c2ccc(NC3CC4(CCN(c5ncnc6sc(CC(F)(F)F)cc56)C4)C3)cc2[nH]1 (mixture of isomers) [Compound 319] | 17.4 nM | > 3.75 µM | > 3.75 µM | – | – | –
20 | O=C(c1ccc(NC2CC3(CCN(c4ncnc5sc(CC(F)(F)F)cc45)C3)C2)cc1)N1CCOCC1 (mixture of isomers) [Compound 333] | 10.3 nM | 0.12 µM | 0.14 µM | – | – | –
21 | Nc1nc(N2CCC3(CC(Nc4ccc5[nH]c(=O)oc5c4)C3)C2)c2cc(CC(F)(F)F)sc2n1 (mixture of isomers) [Compound 384] | 32.6 nM | > 3.75 µM | 1.49 µM | – | – | –
22 | CNC(=O)c1ccc(NC2CC3(CCN(c4ncnc5sc(CC(F)(F)F)cc45)C3)C2)cc1 (single isomer, unassigned) [Compound 95] | 34.6 nM | – | – | – | 1.27 µM | 0.82 µM
23 | FC(F)(F)Cc1cc2c(N3CCC4(CC(Nc5ccc(-c6cn[nH]c6)cc5)C4)C3)ncnc2s1 (single isomer, unassigned) [Compound 327] | 8.4 nM | – | > 3.75 µM | 0.56 µM | – | –
24 | CNC(=O)c1ccc(NC2CC3(CCN(c4nc(NC)nc5sc(CC(F)(F)F)cc45)C3)C2)cc1 (centres unmarked) [Compound 64] | 2.4 nM | – | 0.92 µM | 0.14 µM | – | –
25 | O=C1Cc2ccc(NC3CCC4(C3)CN(c3ncnc5sc(CC(F)(F)F)cc35)C4)cc2N1 (centres unmarked) [Compound 292] | 81.3 nM | – | – | > 3.75 µM | – | –
26 | FC(F)(F)Cc1cc2c(N3CC4(CCC(Nc5ccc(-c6cn[nH]c6)cc5)C4)C3)ncnc2s1 (centres unmarked) [Compound 302] | 509 nM | – | – | 2.56 µM | – | –
